“Also recorded” adds a separate entry of the source. Where two headings read alike, the source gives them in different places.
Tests used:
McinOBP4-Wt [1] = molecular target: T1, McinOBP4-Wt (Macrocentrus cingulum, UniProt A0A1S6PU99); assay: Competitive binding assay with 1-NPN as fluorescent reporter, McinOBP4-Wt
Description: (§1) One cm light path fluorimeter quartz cuvette was used on a FluoroMax-4 (Horiba Scientific, USA) spectrophotometer at room temperature for fluorescence spectra recording and excitation wavelength of 337 nm was chosen and 300–500 nm for the emission with a 5 nm slit width. Spectra were recorded with 2 μM McinOBP4 in 50 mM Tris-HCl of different pH value, while ligands were added as 1 mM methanol solutions.
The probe was excited at 337 nm and emission spectra were recorded between 300 and 500 nm.
(§2) It was assumed that McinOBP4 was 100% active and the protein-ligand binding was 1:1 ratio at saturation. The obtained data were processed with Graphpad Prism software (Graphpad Software, Inc.) and using a software package SPSS Version 16 (http://www.spss.com). The maximum intensity values of emission were plotted against the 1-NPN concentration for the KD determination, and the values of intensity were used for the evaluation the bound ligands. The curve was linearized using Scatchard Plots to verify the confidence of KD.

McinOBP4-M2 [2] = molecular target: T2, McinOBP4-M2 (Macrocentrus cingulum, UniProt A0A1S6PU99, M141L); assay: Competitive binding assay with 1-NPN as fluorescent reporter, McinOBP4-M2; conditions: compared to wild type and M1
T2 sequence (A0A1S6PU99 23-142 M141L): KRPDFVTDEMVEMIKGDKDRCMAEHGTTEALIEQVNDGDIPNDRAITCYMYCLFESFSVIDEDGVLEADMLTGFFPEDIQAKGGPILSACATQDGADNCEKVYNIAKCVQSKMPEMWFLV

McinOBP4-Wt [3] = molecular target: T1, McinOBP4-Wt; assay: Fluorescence binding of 1-NPN to McinOBP4-Wt
Description: as §1
To measure the affinity of the fluorescence ligand N-phenyl-1-naphthylamine (1-NPN) to McinOBP4-wt and mutants, a 2 μM solution of the protein in 50 mM Tris-HCl, pH 7.4, was titrated with aliquots of 1 mM ligand in high-performance liquid chromatography (HPLC) purity grade methanol to final concentrations of 2–20 μM. The probe was excited at 337 nm and emission spectra were recorded between 300 and 500 nm. While the other competitor were measured in competitive binding assays, where 1-NPN using as the fluorescent reporter at 2 μM concentration and each competitor (odorants) over concentration ranges 2–14 μM, depending on the different odorants.
as §2, with “KD. IC50 for other corn odorants were calculated using with Microsoft excel 2010, and the equation, KD = [IC50]/[1+(1–NPN)/K1−NPN] was used for the KD values calculation. In this equation [IC50] stands for the ligand concentration where the ligand quenching the fluorescence intensity of 1-NPN to 50%, [1-NPN] and K1−NPN mean free 1-NPN concentration and McinOBP4/1-NPN complex KD values, respectively (Campanacci et al., [2001]; Ban et al., [2002]).” for “KD.”

McinOBP4-M2 [4] = molecular target: T2, McinOBP4-M2; assay: Fluorescence binding of 1-NPN to mutant McinOBP4-M2 (Met119 replaced by Leu); conditions: McinOBP4-M2, pH 7.4; read-out: Dissociation constant (KD) of 1-NPN
Description: (§3) The C-terminal tail truncated form of the McinOBP4 was obtained by removing the last 8 amino acids and inserting a stop codon after Leu112. The McinOBP4-Wt/pGEM-T Easy construct was used as a template. A pair of primer was designed manually and as listed sense primer 5′- […] -3′ (underlined with BamHI) and antisense primer, 5′- […] -3′ (underlined with HindIII) where 113th position residues used as a stop codon. The mutant M2 (Met119) was prepared along with the pair of primer as sense primer 5′- […] -3′ (under lined with BamHI), and antisense primere 5′- […] -3′ (under lined with HindIII). […]
as §1, with “solutions. […]” for “solutions.”
(§4) It was assumed that McinOBP4 was 100% active and the protein-ligand binding was 1:1 ratio at saturation. […] IC50 for other corn odorants were calculated using with Microsoft excel 2010, and the equation, KD = [IC50]/[1+(1–NPN)/K1−NPN] was used for the KD values calculation. […]

McinOBP4-M1 = molecular target: T3, McinOBP4-M1 (Macrocentrus cingulum, UniProt A0A1S6PU99); assay: Fluorescence binding of 1-NPN to C-terminal truncated mutant McinOBP4-M1
T3 sequence (A0A1S6PU99 23-134): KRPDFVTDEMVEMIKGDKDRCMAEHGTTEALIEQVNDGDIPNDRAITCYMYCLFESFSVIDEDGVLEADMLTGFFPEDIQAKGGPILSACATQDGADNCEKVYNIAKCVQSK
Description: as §3
as §1, with “solutions. […]” for “solutions.”
as §4

[5] = recombinant McinOBP4-Wt, pH = 7.4, calculated from IC50, read-out: KD
[6] = recombinant McinOBP4-Wt, pH = 7.4, displacement of 1-NPN, read-out: IC50
[7] = McinOBP4-Wt, pH 7.4, read-out: KD

T1 sequence (A0A1S6PU99 entry or part of it): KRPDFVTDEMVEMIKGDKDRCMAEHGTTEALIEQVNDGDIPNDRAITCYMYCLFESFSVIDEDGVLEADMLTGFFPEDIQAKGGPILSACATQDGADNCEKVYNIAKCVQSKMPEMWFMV

| Compound | Kd (McinOBP4-Wt [1]; [5]) [µM] | IC50 (McinOBP4-Wt [1]; [6]) [µM] | IC50 (McinOBP4-Wt [1]) [µM] | Kd (McinOBP4-Wt [1]) [µM] | also measured |
| --- | --- | --- | --- | --- | --- |
| C=CC(=C)CCC=C(C)C [Myrcene] | 17.9 | 23 | – | – | – |
| CCCCCCCCC=O [Nonanal] | 12.5 | 16.1 | – | – | – |
| CC1=CCC2CC1C2(C)C (stereo not drawn) [α-Pinene] | – | – | 34.2 | 26.6 | – |
| C=C1CCC2CC1C2(C)C (stereo not drawn) [β-Pinene] | – | – | 18.8 | 14.7 | – |
| C=CC(O)CC (centres unmarked) [1-Penten-3-ol] | 19.8 | 25.4 | – | – | – |
| CC/C=C\CCO [Cis-3-Hexen-1-ol] | – | – | 19.9 | 15.5 | – |
| C=C/C(C)=C/C/C=C(\C)CCC=C(C)C [Farnsene] | 21.3 | 27.4 | – | – | – |
| CCCCC/C=C/C=O [Trans-2-Octenal] | 11.9 | 15.3 | – | – | Binding affinity to McinOBP4-M2 compared to wild type and first mutant (McinOBP4-M2 [2]; listed as trans-2-octanal): lower binding affinities; also recorded: much weaker; Kd (McinOBP4-Wt [1]; [7]): 11.8 ± 0.57 µM |
| CCCCCC/C=C/C=O [Trans-2-Nonenal] | 12.8 | 16.5 | – | – | – |
| C=C1CC/C=C(\C)CC[C@@H]2[C@@H]1CC2(C)C (relative stereo) [Trans Caryophelle] | 19.1 | 24.5 | – | – | – |
| CCCCCCC=O [Heptanal] | 13 | 16.8 | – | – | – |
| Hexenal | 26.9 | 34.6 | – | – | – |
| c1ccc(Nc2cccc3ccccc23)cc1 [1-NPN, N-phenyl-1-naphthylamine] | – | – | – | – | Affinity of 1-NPN in acidic condition (McinOBP4-Wt [3]; acidic condition (pH 4.4)): did not observe significant loss of binding activity; Affinity of 1-NPN in basic condition (McinOBP4-Wt [3]; basic condition): increase in basic condition; also recorded: increase in affinity; Kd (McinOBP4-Wt [3]; pH 7.4, read-out: Dissociation constant (KD) of 1-NPN): 5.69 ± 0.83 µM; Kd (McinOBP4-M2 [4]): 8.85 ± 0.63 µM; Affinity of 1-NPN in basic condition (McinOBP4-M1; McinOBP4-M1, basic condition): increase in basic condition; also recorded: increase in affinity; Kd (McinOBP4-M1; McinOBP4-M1, pH 7.4, read-out: Dissociation constant (KD) of 1-NPN): 6.99 ± 0.59 µM |
| CC(=O)/C=C/C1C(C)=CCCC1(C)C (stereo not drawn) [α-Ionone] | – | – | 24.1 | 18.7 | – |
| C=CC(C)(O)CCC=C(C)C (centres unmarked) [Linalool] | – | – | 12.3 | 9.61 ± 0.23 | Binding affinity to McinOBP4-M2 compared to wild type and first mutant (McinOBP4-M2 [2]): lower binding affinities; also recorded: much weaker |
| CCCCCc1ccco1 [2-Pentylfuran] | 15.7 | 20.1 | – | – | – |
| CC(=O)/C=C/C1=C(C)CCCC1(C)C [β-Ionone] | – | – | 15.1 | 11.8 | Binding affinity to McinOBP4-M2 compared to wild type and first mutant (McinOBP4-M2 [2]): lower binding affinities; also recorded: much weaker |
| CCCCC(C)CC(C)C (centres unmarked) [2,4 Dimethyl Octane] | 36.6 | 47 | – | – | – |
| C=C(C)[C@H]1CC=C(C)CC1 [Limonene] | 4.12 | 5.29 | – | – | Binding affinity to McinOBP4-M2 compared to wild type and first mutant (McinOBP4-M2 [2]): lower binding affinities; also recorded: much weaker; Kd (McinOBP4-Wt [1]; [7]): 4.12 ± 0.7 µM |
| CC/C=C/CCOC(C)=O [Trans-3-Hexen-1-ol-Acetate] | 6.99 | 8.98 | – | – | Binding affinity to McinOBP4-M2 compared to wild type and first mutant (McinOBP4-M2 [2]): lower binding affinities; also recorded: much weaker; Kd (McinOBP4-Wt [1]; [7]): 6.99 ± 1.23 µM |
| CCC/C=C/CO [Trans-2-Hexen-1-ol] | – | – | 19.8 | 15.4 | – |
| CCC/C=C/C=O [Trans-2-Hexen-1-al] | – | – | 16.4 | 12.8 | – |

Source: article PMC5297413, “C-terminus Methionene Specifically Involved in Binding Corn Odorants to Odorant Binding Protein4 in Macrocentrus cingulum” (Frontiers in Physiology, 2017)
